Columns and labels:
[1] = tested on: BCL-2 G101V knock-in cell line H96 (derive from RS4;11); test: Bcl 2-G101V Knock-In RS4;11 Cell Proliferation Assay; format: cell-based; settings: Homo sapiens, RS4-11, 48 h, RS4;11 Bcl-2 G101V knock-in clone H96, 48 hrs, CellTiter-GLO, read-out: Cellular proliferation assay (IC50, nM) RS4
Procedure, shortened: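 H96, a CRISPR-generated RS4;11 clone carrying BCL2-G101V knock-in (WES/RNA-seq validated), seeded 50,000 per well and exposed 48 h at 37 °C to 10-point dilutions topping at 1 or 10 μM. Viability by CellTiter-Glo luminescence; mean IC50.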

[2] = Metabolic Stability Study, liver microsome incubation (human); format: in vitro ADME; settings: human liver microsomes 0.5 mg/mL, 1 μM compound, NADPH; read-out: CLint (μL × min^−1 × mg^−1) Human
Procedure, shortened: (§1)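 Test compounds (1 μM) incubated at 37° C with 0.5 mg/mL liver microsomes plus NADPH regenerating system; samples quenched at 0, 30 and 60 min. Parent loss measured by LC-MS/MS, giving CLint and T1/2, with CLint normalised to microsomal protein concentration.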

[3] = Metabolic Stability Study, liver microsome incubation (mouse); format: in vitro ADME; settings: mouse liver microsomes 0.5 mg/mL, 1 μM compound, NADPH
Procedure, shortened: as §1

[4] = tested on: recombinant human Bcl-2-G101V protein; test: Bcl-2-G101V TR-FRET Assay; format: binding; settings: ratio of biochemical IC50 Bcl-2 G101V / Bcl-2 WT
Procedure, shortened: (§2)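 Displacement of ligand from recombinant human Bcl-2-G101V measured by TR-FRET (ex337 nm, em490/520 nm), inhibition derived from the 490/520 ratio across compound titrations. IC50 from four-parameter logistic fit.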

[5] = biological target: recombinant human Bcl-2-G101V protein (Homo sapiens (Human), UniProt P10415, G101V); test: Bcl-2-G101V TR-FRET Assay; format: binding; settings: Bcl-2 G101V mutant, TR-FRET; read-out: Biochemical assay (IC50, nM) Bcl-2 G101V
Procedure, shortened: as §2

Q: Which IC50 [1] does the source give for `COc1cc(CN2CCN(C3CC4(C3)CN(c3ccc(C(=O)NS(=O)(=O)c5ccc(NC[C@H]6CC[C@](C)(O)CC6)c([N+](=O)[O-])c5)c(Oc5cnc6[nH]cc(F)c6c5)c3)C4)[C@H](c3ccccc3C(C)C)C2)ccc1N1CCOCC1` [Example 361, 2-((3-fluoro-1H-pyrrolo[2,3-b]pyridin-5-yl)oxy)-N-((4-((((1r,4r)-4-hydroxy-4-methylcyclohexyl)methyl)amino)-3-nitrophenyl)sulfonyl)-4-(6-((R)-2-(2-isopropylphenyl)-4-(3-methoxy-4-morpholinobenzyl)piperazin-1-yl)-2-azaspiro[3.3]heptan-2-yl) benzamide] here?
A: The IC50 was 0.13 nM.

Q: What about the microsomal CLint at 1 μM [2] of the same compound?
A: Its microsomal CLint at 1 μM is less than 1 µL/min/mg.

Q: And the half-life at 1 μM ([3]; NA^# = very stable, beyond the detection limits, read-out: T1/2 (min) mouse)?
A: The half-life at 1 μM was 273 min.

Q: And the microsomal CLint at 1 μM ([3]; read-out: CLint (μL × min^−1 × mg^−1) mouse)?
A: Its microsomal CLint at 1 μM is 5.1 µL/min/mg.

Q: What about the “Ratio of Bcl-2 G101V/WT” value [4] of the same compound?
A: The value was 3.1.

Q: And the IC50 [5]?
A: The IC50 was 0.16 nM.

— patent publication US20240376097A1, “BCL-2 Inhibitor” (BeiGene Ltd., priority 2020, published 2024)
